From ChEMBL document CHEMBL4219024, “A "Click Chemistry Platform" for the Rapid Synthesis of Bispecific Molecules for Inducing Protein Degradation” (J Med Chem, 2018)
Values after ≈ are worked out from the molar mass of the structure shown. Active and inactive are the calls of the source. The calls are words filed in the database; no cut-off is given here.

How the values were obtained:
physchem = conditions: fasted state simulated intestinal fluid
[1] = target: T1, Protein cereblon/Bromodomain-containing protein 4/DNA damage-binding protein 1 (Homo sapiens, UniProt O60885+Q96SW2+Q16531); test: Induction of CRBN/DDB1-mediated BRD4 protein degradation in human NCI-H661 cells assessed as drug level causing 50% cellular protein depletion incubated for 4 hrs by MSD assay
[2] = Solubility of the compound in PBS
[3] = Solubility of the compound in 0.01 N HCl
[4] = target: T1, Protein cereblon/Bromodomain-containing protein 4/DNA damage-binding protein 1; test: Proteolysis targeting chimera activity in human NCI-H661 cells assessed as induction of CRBN/DDB1-mediated delivery of BRD4 for protein degradation by proteasome at 10 uM after 4 hrs by Meso Scale Diagnostics assay; assay type: cell-based
[5] = target: T2, von Hippel-Lindau disease tumor suppressor/Bromodomain-containing protein 4 (Homo sapiens) (UniProt O60885+P40337); test: Induction of human His-tagged VHL(1 to 154)/GST-tagged BRD4 (49 to 170 residues) interaction assessed as VHL/BRD4/compound complex formation preincubated for 60 mins and measured after 60 mins by luminescence based Alphascreen proximity assay relative to control; assay type: protein assay
[6] = target: T1, Protein cereblon/Bromodomain-containing protein 4/DNA damage-binding protein 1; test: Proteolysis targeting chimera activity in human NCI-H661 cells assessed as induction of CRBN/DDB1-mediated delivery of BRD4 for protein degradation by proteasome at 1 uM after 4 hrs in presence of 10 uM thalidomide by Meso Scale Diagnostics assay; assay type: cell-based
[7] = target: T1, Protein cereblon/Bromodomain-containing protein 4/DNA damage-binding protein 1; test: Proteolysis targeting chimera activity in human NCI-H661 cells assessed as induction of CRBN/DDB1-mediated delivery of BRD4 for protein degradation at 1 uM after 4 hrs by Meso Scale Diagnostics assay; assay type: cell-based
[8] = target: T1, Protein cereblon/Bromodomain-containing protein 4/DNA damage-binding protein 1; test: Proteolysis targeting chimera activity in human NCI-H661 cells assessed as induction of CRBN/DDB1-mediated delivery of BRD4 for protein degradation by proteasome at 1 uM after 4 hrs in presence of 10 uM of JQ-1 by Meso Scale Diagnostics assay; assay type: cell-based
[9] = target: T1, Protein cereblon/Bromodomain-containing protein 4/DNA damage-binding protein 1; test: Proteolysis targeting chimera activity in human NCI-H661 cells assessed as induction of CRBN/DDB1-mediated delivery of BRD4 for protein degradation by proteasome at 1 uM after 4 hrs in presence of 20 uM MG132 by Meso Scale Diagnostics assay; assay type: cell-based
[10] = target: T2, von Hippel-Lindau disease tumor suppressor/Bromodomain-containing protein 4 (Homo sapiens); test: Proteolysis targeting chimera activity in human NCI-H661 cells assessed as induction of VHL-mediated delivery of BRD4 for protein degradation by proteasome after 4 hrs in presence of 2-(prop-2-ynyloxy)ethanol by Meso Scale Diagnostics assay; assay type: cell-based

T2 sequence (P40337 whole entry, looked up, other chains not shown, the tested form may be a part): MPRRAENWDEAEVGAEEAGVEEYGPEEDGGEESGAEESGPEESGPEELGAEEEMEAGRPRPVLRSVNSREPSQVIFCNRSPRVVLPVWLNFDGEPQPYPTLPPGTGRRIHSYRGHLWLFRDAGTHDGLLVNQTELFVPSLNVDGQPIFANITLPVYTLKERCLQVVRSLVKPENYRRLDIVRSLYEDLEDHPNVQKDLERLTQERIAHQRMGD

Row | solubility (physchem) | solubility [2] | solubility ([3]; 0.01 N HCl) | %max [5] | SMILES | DC50 [1] | also measured
1 | 183 µM (≈ 198 µg/mL) | 71 µM (≈ 76.9 µg/mL) | 293 µM (≈ 318 µg/mL) | 11% | Cc1ncsc1-c1ccc(CNC(=O)[C@@H]2C[C@@H](O)CN2C(=O)[C@@H](NC(=O)COCCOCCOCc2cn(CCNC(=O)C[C@@H]3N=C(c4ccc(Cl)cc4)c4c(sc(C)c4C)-n4c(C)nnc43)nn2)C(C)(C)C)cc1 | 240 nM | –
2 | 90 µM (≈ 89.6 µg/mL) | – | 314 µM (≈ 313 µg/mL) | 46% | Cc1ncsc1-c1ccc(CNC(=O)[C@H]2CN(C(=O)[C@@H](NC(=O)COCc3cn(CCNC(=O)C[C@@H]4N=C(c5ccc(Cl)cc5)c5c(sc(C)c5C)-n5c(C)nnc54)nn3)C(C)(C)C)C[C@@H]2O)cc1 | 59 nM | –
3 | 313 µM (≈ 367 µg/mL) | 206 µM (≈ 241 µg/mL) | 500 µM (≈ 586 µg/mL) | 3% | Cc1ncsc1-c1ccc(CNC(=O)[C@@H]2C[C@@H](O)CN2C(=O)[C@@H](NC(=O)COCCOCCOCCOCCOCc2cn(CCNC(=O)C[C@@H]3N=C(c4ccc(Cl)cc4)c4c(sc(C)c4C)-n4c(C)nnc43)nn2)C(C)(C)C)cc1 | 630 nM | –
4 | 294 µM (≈ 332 µg/mL) | 168 µM (≈ 189 µg/mL) | 394 µM (≈ 444 µg/mL) | 15% | Cc1ncsc1-c1ccc(CNC(=O)[C@@H]2C[C@@H](O)CN2C(=O)[C@@H](NC(=O)COCCOCCOCCOCc2cn(CCNC(=O)C[C@@H]3N=C(c4ccc(Cl)cc4)c4c(sc(C)c4C)-n4c(C)nnc43)nn2)C(C)(C)C)cc1 | 460 nM | –
5 | 178 µM (≈ 185 µg/mL) | 38 µM (≈ 39.5 µg/mL) | 343 µM (≈ 357 µg/mL) | 22% | Cc1ncsc1-c1ccc(CNC(=O)[C@@H]2C[C@@H](O)CN2C(=O)[C@@H](NC(=O)COCCOCc2cn(CCNC(=O)C[C@@H]3N=C(c4ccc(Cl)cc4)c4c(sc(C)c4C)-n4c(C)nnc43)nn2)C(C)(C)C)cc1 | 83 nM | Activity [10]: inactive

Second part, the compound before the results:

Row | SMILES | solubility (physchem) | solubility [2] | solubility ([3]; 0.01 N HCl) | %max [5] | DC50 [1] | also measured
6 | Cc1sc2c(c1C)C(c1ccc(Cl)cc1)=N[C@@H](CC(=O)NCCn1cc(COCCOc3cccc4c3C(=O)N(C3CCC(=O)NC3=O)C4=O)nn1)c1nnc(C)n1-2 (stereo partly specified) | 247 µM (≈ 204 µg/mL) | 111 µM (≈ 91.6 µg/mL) | 242 µM (≈ 200 µg/mL) | – | > 5000 nM | –
7 | C#CCOCCOCCOCCOCCOc1cccc2c1C(=O)N(C1CCC(=O)NC1=O)C2=O (stereo unspecified) | – | – | – | – | – | Activity [4]: inactive
8 | Cc1sc2c(c1C)C(c1ccc(Cl)cc1)=N[C@@H](CC(=O)NCCn1cc(COCCOCCOc3cccc4c3C(=O)N(C3CCC(=O)NC3=O)C4=O)nn1)c1nnc(C)n1-2 (stereo partly specified) | 237 µM (≈ 206 µg/mL) | 76 µM (≈ 66.1 µg/mL) | 237 µM (≈ 206 µg/mL) | – | > 5000 nM | –
9 | Cc1sc2c(c1C)C(c1ccc(Cl)cc1)=N[C@@H](CC(=O)NCCn1cc(COCCOCCOCCOc3cccc4c3C(=O)N(C3CCC(=O)NC3=O)C4=O)nn1)c1nnc(C)n1-2 (stereo partly specified) | 216 µM (≈ 197 µg/mL) | 130 µM (≈ 119 µg/mL) | 310 µM (≈ 283 µg/mL) | – | – | –
10 | Cc1sc2c(c1C)C(c1ccc(Cl)cc1)=N[C@@H](CC(=O)NCCCCNC(=O)COc1cccc3c1C(=O)N(C1CCC(=O)NC1=O)C3=O)c1nnc(C)n1-2 (stereo partly specified) | 97 µM (≈ 76.2 µg/mL) | 60 µM (≈ 47.1 µg/mL) | 171 µM (≈ 134 µg/mL) | – | – | –
11 | Cc1ncsc1-c1ccc(CNC(=O)[C@@H]2C[C@@H](O)CN2C(=O)[C@@H](NC(=O)COCCOCCOCCNC(=O)C[C@@H]2N=C(c3ccc(Cl)cc3)c3c(sc(C)c3C)-n3c(C)nnc32)C(C)(C)C)cc1 | 164 µM (≈ 164 µg/mL) | 97 µM (≈ 97.3 µg/mL) | – | 100% | – | solubility ([3]; buffer): 450 µM (≈ 451 µg/mL)
12 | Cc1sc2c(c1C)C(c1ccc(Cl)cc1)=N[C@@H](CC(=O)NCCN=[N+]=[N-])c1nnc(C)n1-2 | – | – | – | – | – | Activity [4]: inactive
13 | Cc1sc2c(c1C)C(c1ccc(Cl)cc1)=N[C@@H](CC(=O)NCCn1cc(COc3cccc4c3C(=O)N(C3CCC(=O)NC3=O)C4=O)nn1)c1nnc(C)n1-2 (stereo partly specified) | 191 µM (≈ 149 µg/mL) | 31 µM (≈ 24.2 µg/mL) | 171 µM (≈ 134 µg/mL) | – | – | –
14 | Cc1sc2c(c1C)C(c1ccc(Cl)cc1)=N[C@@H](CC(=O)NCCn1cc(COCCOCCOCCOCCOc3cccc4c3C(=O)N(C3CCC(=O)NC3=O)C4=O)nn1)c1nnc(C)n1-2 (stereo partly specified) | 273 µM (≈ 261 µg/mL) | 158 µM (≈ 151 µg/mL) | 317 µM (≈ 304 µg/mL) | – | 200 nM | Activity [6]: inactive; Activity [7]: > 90%; Activity [8]: inactive; Activity [9]: inactive
